Measured values reported in patent publication US9233110B2, “Protein nanocarriers for topical delivery” (priority 2008, dated 2016).

What was measured:
skin = conditions: Cornwell and Barry 1993; cited from earlier work
[1] = in words; cited from earlier work
[2] = cited from earlier work
porcine dermatomed skin = experiment: Skin penetration of rhodamine 123 (fluorescence and confocal microscopy); type: in vitro ADME; conditions: 10 μg rhodamine 123 equivalent, 6 hours, cryosections
Description: For stratum corneum (SC) 0-20 μm and for epidermis 20-100 μm XZ optical sections from confocal microscopic images were used for quantifying the fluorescence pixels. The nanoparticles were prepared using the method described in Table 8-1.
Later the skin was sectioned with cryotome and observed under a fluorescent microscope.

Compound	skin permeability (skin)	solubility in water [1]	Log P [2]	penetration into skin (porcine dermatomed skin)
O=c1[nH]cc(F)c(=O)[nH]1 [5-Fluorouracil (5-FU), 5-Fluorouracil]	poorly permeable through skin	partially soluble in cold water	–	–
COC(=O)c1ccccc1-c1c2ccc(=N)cc-2oc2cc(N)ccc12.Cl [Rhodamine 123]	–	–	1.2	restricted to the top layer of skin (SC)
